A word on the IC50: it is the concentration at which inhibition is half-maximal.

For the first experiment, the target named is human P2X3 receptor (Homo sapiens (Human), UniProt P56373). The experiment is described as follows: Evaluation of human P2X3 receptor inhibitory activity (Fluo-3 calcium fluorescence, FDSS 3000, ATP stimulation).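 Further: stimulus was 50 nM ATP with fluorescence followed for 3 min, and the response per well was peak post-ATP fluorescence divided by the reading at measurement start.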 In kind it is cell-based. The note with it: C6BU-1 cells stably expressing human P2X3 receptor.
Chain of human P2X3 receptor (P56373 whole entry): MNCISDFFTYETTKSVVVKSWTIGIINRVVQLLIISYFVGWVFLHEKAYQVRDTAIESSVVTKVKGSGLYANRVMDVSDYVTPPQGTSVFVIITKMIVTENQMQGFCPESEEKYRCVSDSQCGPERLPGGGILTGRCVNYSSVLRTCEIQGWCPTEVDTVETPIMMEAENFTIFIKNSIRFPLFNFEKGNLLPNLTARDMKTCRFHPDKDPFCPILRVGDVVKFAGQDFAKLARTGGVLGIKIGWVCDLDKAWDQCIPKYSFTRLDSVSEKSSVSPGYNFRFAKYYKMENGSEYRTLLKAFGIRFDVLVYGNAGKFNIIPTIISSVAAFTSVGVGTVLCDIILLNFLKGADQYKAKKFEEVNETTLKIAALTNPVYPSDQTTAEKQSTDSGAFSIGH
On to `COC(=O)[C@@H](C)Cn1c(=O)[nH]/c(=N\c2ccc(CC(C)C)c(Cl)c2)n(Cc2ccc(C)nc2)c1=O` [Compound I-1464], for which the IC50 came out at 0.07 µM.
`CCCc1ccc(/N=c2\[nH]c(=O)n(C[C@H](C)C(=O)O)c(=O)n2Cc2ccc(C)cc2)cc1C` [Compound I-1212]: the IC50 turned out to be 0.09 µM.
Still for that read-out and setting: for `CNC(=O)Cn1c(=O)[nH]/c(=N\c2ccc(Oc3ccnc(C)c3)cc2)n(Cc2ccc(Cl)cc2)c1=O` [Compound I-1927] the value was 0.007 µM; for `COC(=O)[C@@H](C)Cn1c(=O)[nH]/c(=N\c2ccc(Oc3ccnc(C)c3)cc2)n(Cc2ccc(C)cc2)c1=O` [Compound I-1274], 0.006 µM.
As for `CC(C)Oc1ccc(/N=c2\[nH]c(=O)n(C[C@H](C)C(=O)O)c(=O)n2Cc2ccc(F)cc2)cc1Cl` [Compound I-0630], the IC50 worked out at 0.03 µM.
With `CCc1cc(/N=c2\[nH]c(=O)n(CCC(=O)O)c(=O)n2Cc2ccc(C)cc2)ccc1OC(C)C` [Compound I-1199], the IC50 worked out at 0.036 µM.
Turning to `COC(=O)[C@@H](C)Cn1c(=O)[nH]/c(=N\c2ccc(OC3CCC3)cc2)n(Cc2ccc(Cl)cc2)c1=O` [Compound I-1281], the half-maximal inhibitory concentration (IC50) worked out at 0.006 µM.
On to `COC(=O)[C@H](C)[C@H](C)n1c(=O)[nH]/c(=N\c2ccc(OC3CCC3)cc2)n(Cc2ccc(Cl)cc2)c1=O` [Compound I-1378], for which the half-inhibitory concentration (IC50) came out at 0.012 µM.
Take `COC(=O)[C@@H](C)Cn1c(=O)[nH]/c(=N\c2ccc(OC3CCC3)cc2)n(Cc2ccc(C)cc2)c1=O` [Compound I-1217]: the IC50 was 0.005 µM.
For `O=c1[nH]/c(=N\c2ccc(Oc3ccnc(CO)c3)cc2)n(Cc2ccc(Cl)cc2)c(=O)n1CCCO` [Compound I-1995], the IC50 came to 0.005 µM.
Regarding `COC(=O)c1cccc(Oc2ccc(/N=c3\[nH]c(=O)n(C)c(=O)n3Cc3ccc(Cl)cc3)cc2)c1` [Compound I-2059], the half-inhibitory concentration (IC50) is 0.056 µM.
`C[C@@H](Oc1ccc(/N=c2\[nH]c(=O)n(CCC(=O)NCC(F)(F)F)c(=O)n2Cc2ccc(Cl)cc2)cc1)C(F)(F)F` [Compound I-1958]: the IC50 is 0.016 µM.
Turning to `Cc1ccc(Cn2c(=O)n(CCC(=O)O)c(=O)[nH]/c2=N\c2ccc(OC3CCC3)cc2)cc1` [Compound I-1285], the IC50 was 0.051 µM.
Consider `COC(=O)[C@@H](C)Cn1c(=O)[nH]/c(=N\c2cnc(Oc3ccccc3)c(Cl)c2)n(Cc2ccc(C)cc2)c1=O` [Compound I-1474], for which the IC50 worked out at 0.138 µM.
Turning to `CC(C)Oc1ccc(/N=c2\[nH]c(=O)n(Cc3ncn[nH]3)c(=O)n2Cc2ccc(Cl)cc2)cc1F` [Compound I-0679], the IC50 worked out at 0.032 µM.
As for `Cc1cc(/N=c2\[nH]c(=O)n(Cc3ccc[nH]c3=O)c(=O)n2Cc2ccc(Cl)cc2)ccc1OC(C)C` [Compound I-0725], the IC50 amounted to 0.014 µM.
`COC(=O)[C@H](C)[C@H](C)n1c(=O)[nH]/c(=N\c2ccc(OC3CCC3)c(C)c2)n(Cc2ccc(C)cc2)c1=O` [Compound I-1402]: the IC50 is 0.033 µM.
Still for that read-out and setting: for `Cc1cc(/N=c2\[nH]c(=O)n(CCC(=O)O)c(=O)n2Cc2ccc(Cl)cc2)ccc1CC(C)C` [Compound I-1255] the value was 0.048 µM.
Consider `CCc1nc2ccc(/N=c3\[nH]c(=O)n(CCCCC(=O)O)c(=O)n3Cc3ccc(C)cc3)cc2s1` [Compound I-2159], for which the IC50 was found to be 0.047 µM.
Same read-out and setting: for `CCOC(=O)CCn1c(=O)[nH]/c(=N\c2ccc(CC(C)C)c(F)c2)n(Cc2ccc(C)cc2)c1=O` [Compound I-1298] the value was 0.026 µM.

The same experiment, now with this note: C6BU-1 cells stably expressing human P2X3 receptor, Fluo-3 fluorescence, FDSS 3000.
For `Cc1ccc(Cn2c(=O)n(CCC(=O)O)c(=O)[nH]/c2=N\c2ccc3nc(C(C)C)sc3c2)cc1` [Compound I-1563], the IC50 worked out at 0.031 µM.
On the same count and under the same terms, for `C[C@@H](C(=O)O)[C@H](C)n1c(=O)[nH]/c(=N\c2ccc(OCC3CC3)cc2)n(Cc2ccc(Cl)cc2)c1=O` [Compound I-0921] the value was 0.03 µM; for `CC(=O)NCCCn1c(=O)[nH]/c(=N\c2ccc(O[C@H](C)C(F)(F)F)cc2)n(Cc2ccc(Cl)cc2)c1=O` [Compound I-1615], 0.012 µM; for `Cc1ccc(Cn2c(=O)n(C[C@H](C)C(=O)O)c(=O)[nH]/c2=N\c2ccc(OC(F)F)c(Cl)c2)cc1` [Compound I-1032], 0.033 µM.
Consider `COC(=O)[C@@H](C)Cn1c(=O)[nH]/c(=N\c2ccc(OC3CC3)c(Cl)c2)n(Cc2ccc(C)cc2)c1=O` [Compound I-1605], for which the IC50 stood at 0.018 µM.
As for `COC(=O)[C@H](C)[C@H](C)n1c(=O)[nH]/c(=N\c2ccc(OC(C)C)c(F)c2)n(Cc2ccc(C)cc2)c1=O` [Compound I-0967], the IC50 was 0.019 µM.
In the case of `CCOC(=O)C1(Cn2c(=O)[nH]/c(=N\c3ccc(OCC4CC4)c(Cl)c3)n(Cc3ccc(C)cc3)c2=O)CC1` [Compound I-0970], the IC50 worked out at 0.02 µM.
Regarding `CCn1c(=O)[nH]/c(=N\c2ccc(Oc3cc(OC)ncn3)cc2)n(Cc2ccc(Cl)cc2)c1=O` [Compound I-1859], the IC50 is 0.005 µM.
Still for that read-out and setting: for `COC(=O)[C@@H](C)Cn1c(=O)[nH]/c(=N\c2ccc(N3CCCCC3)cc2)n(Cc2ccc(Cl)cc2)c1=O` [Compound I-0954] the value was 0.023 µM; for `C[C@@H](C(=O)O)[C@H](C)n1c(=O)[nH]/c(=N\c2ccc3oc4c(c3c2)CCCC4)n(Cc2ccc(Cl)cc2)c1=O` [Compound I-1748], 0.236 µM.
`COc1ccc(Oc2ccc(/N=c3\[nH]c(=O)n(CCCO)c(=O)n3Cc3ccc(Cl)cc3)cc2)cn1` [Compound I-1733]: the half-inhibitory concentration (IC50) came out at 0.003 µM.
With `O=C(O)c1cc(Oc2ccc(/N=c3\[nH]c(=O)n(CCO)c(=O)n3Cc3ccc(Cl)cc3)cc2)ccn1` [Compound I-1797], the IC50 is 0.006 µM.
Take `CCc1oc2ccc(/N=c3\[nH]c(=O)n(C[C@H](CC)NC(C)=O)c(=O)n3Cc3ccc(Cl)cc3)cc2c1C` [Compound I-1708]: the IC50 is 0.017 µM.

Still in this experiment, the particulars now being: human P2X3 receptor, Test Example 1.
Take `CC[C@@H](C)Oc1ccc(/N=c2\[nH]c(=O)n(C[C@H](C)C(=O)OC)c(=O)n2Cc2ccc(C)cc2)cc1C` [Compound I-0823]: the IC50 is 0.011 µM.
In the case of `Cn1c(=O)[nH]/c(=N\c2ccc(Oc3cccc(C(N)=O)n3)cc2)n(C[C@H]2CC[C@H](C)CC2)c1=O` [Compound I-2463], the IC50 is 0.003 µM.
As for `O=c1[nH]/c(=N\c2ccc(Oc3ccon3)cc2)n(Cc2ccc(Cl)cc2)c(=O)n1CCOCCO` [Compound I-2490], the IC50 amounted to 0.01 µM.
Turning to `CCn1c(=S)[nH]/c(=N\c2ccc(Oc3cncc(C(=O)OC)c3)cc2)n(Cc2ccc(Cl)cc2)c1=O` [Compound I-2262, 1-(4-chlorobenzyl)-3-ethyl-6-[4-(5-methoxycarbonyl-3-pyridyloxy)phenylimino]-4-thioxo-1,3,5-triazinane-2-one], the IC50 turned out to be 0.017 µM.
Regarding `Cn1c(=O)[nH]/c(=N\c2ccc(Oc3cccc(C#N)n3)cc2)n(C[C@H]2CC[C@H](C)CC2)c1=O` [Compound I-2446], the IC50 was 0.001 µM.
The same measure, in the same setting: for `CCn1c(=O)[nH]/c(=N\c2ccc(Oc3cncc(C(=O)O)c3)cc2)n(C[C@H]2CC[C@H](C)CC2)c1=O` [Compound I-2352] the value was 0.006 µM; for `Cc1cc(Oc2ccc(/N=c3\[nH]c(=O)n(C[C@@H]4COC(C)(C)O4)c(=O)n3Cc3ccc(Cl)cc3)cc2)no1` [Compound I-2228], 0.005 µM; for `CCOC(=O)Cn1c(=O)[nH]/c(=N\c2ccc(Oc3ncc(C)s3)cc2)n(Cc2ccc(Cl)cc2)c1=O` [Compound I-2619], 0.006 µM.
`CCn1c(=O)[nH]/c(=N\c2ccc(Oc3ccc(C(N)=O)cn3)cc2)n(Cc2ccc(C)cc2)c1=O` [Compound I-2398]: the IC50 was determined as 0.003 µM.

The values are drawn from patent US9718790B2, “Triazine derivative and pharmaceutical composition having an analgesic activity comprising the same” (SHIONOGI & CO., LTD., priority 2010, dated 2017).
